Here are results for one molecule from US20240252493A1, “Apelin Receptor Modulators for Treating Age-Related Muscle Conditions” (BIOAGE LABS, INC., priority 2021, published 2024).

Data set [1] is described as follows: pH of BGE-105 dissolved in deionized water. The note with it: 275 ug/mL in deionized water. Type of data set: physicochemical. The procedure:
BGE-105 was administered in drinking water consumed ad libitum. The compound is mildly acidic when dissolved, resulting in a pH 4.5 solution. The deionized water was adjusted to pH 8.5 by adding 1N NaOH. The vehicle control group consumed water (ad libitum) of the same pH without drug.

Data set [2] relates to 79-HMC. Nature of the data set: Proliferation of immortalized human muscle cells, older donor. Type of data set: cell-based. The note with it: for cell proliferation (measured at day 4): older subject cells. The procedure:
Immortalized human cells from male donors (25-HMC) […] (79-HMC) are grown from the proliferation stage until they become 80% confluent, differentiate, and become myotubes. […] Early proliferation markers (Pax7, Myf5, MyoD, and MyoG were assessed via RT-PCR (FIG. 8D to 8K)

For data set [3], the system named is pAkt. Briefly: Western blot of pAkt in soleus after oral BGE-105. The class given is in vivo. The note with it: mice, oral 45 mg/kg, vs vehicle. The source says: (§1) Administration of an apelin receptor agonist can induce the phosphorylation and activation of AMPK in heart tissue. Tissue samples were lysed using T-PER tissue protein extraction reagent (Thermo Fisher Scientific #78510) containing EDTA and protease/phosphatase inhibitors on the Omni Bead Ruptor 12 Homogenizer. Total protein was extracted then quantified using Pierce™ BCA Protein Assay Kit. Loaded equal amounts of total protein per lane on a 4-12% SDS-PAGE gel and transferred to PVDF membrane. Membranes were blocked and blotted with anti-phospho-AMPKα-Thr172 (Cell Signaling Technology, CST #2535), total-AMPKα (CST #2532), anti-phospho-Akt-SeR^473 (CST #4060), total-Akt (CST #4685), anti-phospho-ERK-1/2-Thr202/Tyr204 of Erk1 and Thr185/Tyr187 of Erk2 (CST #4370), total-ERK-1/2 (CST #9107) or anti-APLNR receptor (abcam, ab214369) antibodies. Band intensities were normalized to loading control anti-β-Actin (CST #3700) or anti-GAPDH (abcam, ab181602) antibodies. Immunoreactive proteins were detected using SuperSignal™ West Femto Substrate (Thermo Fisher Scientific #34095) and quantified by Image Lab™ software (Bio-Rad Laboratories, Inc.).
Apelin can induce the phosphorylation of Akt in the soleus muscle and improve glucose homeostasis. […]
For orientation: A western blot detects proteins with antibodies after separation by electrophoresis.

Data set [4] concerns aged (24-month-old) C57BL/6 mice. Briefly: Activity monitoring wheel test (frailty study). Type of data set: in vivo. The note with it: 24-month-old mice. The procedure:
The animals were housed with access to voluntary running wheels that wirelessly transmit running data to a computer for analysis. Voluntary running wheel activity levels were measured daily, and body weights were measured every 2 weeks.
The study concluded on Study Day 83. Activity wheel monitoring started on Study Day 1 and ended on Study Day 83 (Phase Day 64). The data was analyzed at the end of the study. […] For the frailty portion of the study, mice were assessed using an activity monitoring wheel which was monitored passively with a computer monitoring system. […]
The activity-monitoring wheel is a running disk that monitors rotations. […] Activity was monitored passively and wirelessly with a computer monitoring system. Running wheel activity levels were monitored daily. […] Mouse activity levels were measured as the number of wheel revolutions per day for each mouse and converted into a daily count of kilometers run using the diameter of the wheel. Within each experimental group, the daily median value for activity was calculated. […] The daily differences between the distances run in each group were calculated and tested for an increasing trend using Kendall's rank correlation tau.

The test system of data set [5] is Twenty-month-old male C57/B16 mice. Nature of the data set: Disuse-induced muscle atrophy (hindlimb casting) in aged mice. The class given is in vivo. The source says: Limb immobilization causes a loss of gross skeletal muscle mass accompanied by a significant decrease in apelin transcript levels.
One week into the treatment, mice underwent modified hindlimb casting on one limb. Mice were anesthetized with isoflurane inhalation and the hindlimb wiped with povidone-iodine, then ethanol, and loosely wrapped in surgical gauze. A custom-made plastic immobilization device was placed on the limb, with the foot in full extension, so as to result in the maximal in vivo unloading of the plantarflexor group. The device was fixed to the hindlimb using Vetbond and the animal returned to its cage. After 3 weeks of treatment following casting, mice were euthanized 1 hour after the final ZT1 dose, and tissues isolated, weighed, then flash frozen in liquid nitrogen for subsequent western blot analysis.

The test system of data set [6] is phosphorylation of Akt. Briefly: Western blot of Akt phosphorylation in rat tibialis anterior. Type of data set: in vivo. The note with it: rats.
Text: as §1
The difference between tissues was conserved among rodent species: In rats, as in mice, apelin receptor levels in rat tissue were 2-fold higher in heart than in soleus, FIGS. 5A-5B. […]

The mark [7] stands for this setting: 20-month-old immobilized mice, 50 mg/kg BID, 50 mg/kg.

“Also recorded” adds a separate entry of the source.

Turning to `COc1cccc(OC)c1-n1c(NS(=O)(=O)[C@@H](C)[C@H](C)c2ncc(C)cn2)nnc1-c1cncc(C)c1` [BGE-105, (2S,3R)—N-(4-(2,6-dimethoxyphenyl)-5-(5-methyl-3-pyridinyl)-4H-1,2,4-triazol-3-yl)-3-(5-methyl-2-pyrimidinyl)-2-butanesulfonamide], the “pH of solution when dissolved” value in data set [1] was determined as 4.5. The “cell proliferation, short-term treatment” value in data set [2] (aged donor cells, day 0 to day 4 post seeding) is recorded as “significant increase of cell proliferation”. Further, the “cell proliferation (measured at day 4)” value in data set [2] (5 nM) is on record as “significant increase in cell proliferation”. Further, the “cell proliferation (measured at day 4)” value in data set [2] (50 nM) is given as “increase”. Further, in data set [3], the “pAkt levels in the soleus” value is given as “increased levels; also recorded: marginally significant increase”. The “voluntary running wheel activity vs age-matched controls” value in data set [4] (275 ug/mL in drinking water ad libitum, 64 days) is on record as “statistically significant increase in voluntary motor activity; also recorded: significantly more active; also recorded: decreased significantly less”. For the same molecule, the “distance run more than vehicle-treated mice at end of experimental period” value in data set [4] (275 ug/mL in drinking water, both experiments, on average) is given as “at least 1 km/day”. Further, in data set [5] (setting [7]), the “extensor digitorum longus (EDL) muscle weight / atrophy” value was “did not measurably atrophy; also recorded: near significant improvement in muscle weight; also recorded: near significant decrease in the percent atrophy”, the gastrocnemius atrophy result is “less effective; also recorded: no improvement”, the “soleus muscle weight / atrophy” value is “modest rescue in atrophy; also recorded: near significant improvement in muscle weight; also recorded: marginal improvement in the percent atrophy” and the “tibialis anterior muscle weight / percent atrophy vs vehicle” value is “significant improvement in maintaining muscle weight; also recorded: significant decrease in the percent atrophy”. In data set [5] (casted limb, 50 mg/kg BID P.O., 21 days immobilization), the “decrease in wet weight of tibialis anterior (TA) muscle” value was 3%. For the same molecule, the “muscle atrophy / loss of muscle mass induced by immobilization” value in data set [5] (immobilized aged mice, orally dosed, vs vehicle) is on record as “significantly reduced muscle atrophy; also recorded: protected against some loss of muscle mass”. The “phosphorylation of Akt in TA” value in data set [6] (oral 50 mg/kg BID, 5 consecutive days) was “strongest response”. The “phosphorylation of Akt in TA” value in data set [6] (oral dosing 5 consecutive days, across doses) is “dose-dependent manner”.
